Measured values taken from patent US9175007B2, “IRAK inhibitors and uses thereof” (Nimbus Iris, Inc., priority 2013, dated 2015).
Counter-ions that a name gives are not always drawn.

What was measured:
[1] = tested on: TNFα production in THP-1 cells; test: LPS induced TNFα production assay in THP-1 cells; format: cell-based; settings: Homo sapiens, 300 ng/mL LPS
Method: (§1) Provided compounds were also assayed in an LPS (Lipopolysacharide) or R848 (TLR-7 agonist) induced cytokine (TNFα and IL8) production assay in THP-1 cells, human peripheral blood mononuclear cells (hPBMC), and whole blood. The exemplary protocol for this assay in THP-1 cells was as follows below.
(§2) THP-1 cells from ATCC (TIB-202) were cultured in RPMI Medium 1640 (Invitrogen, Cat No. A10491-01), 10% fetal bovine serum (Invitrogen, Cat No. 10099141, Lot No. 8172882) containing 100 U/mL Penicillin, 100 μg/mL streptomycin (Invitrogen, Cat No. 15140-122), and 50 uM 2-Mercaptoethanol (Invitrogen, Cat No. 21985023). LPS-EK ultra pure (Invivogen, Cat No. tlrl-peklps) was used to induce IL8 and TNFα production, that was detected in the cell culture supernatant by IL8 HTRF kit (Cisbio, Cat No. 62IL8PEB) and TNFα HTRF kit (Cisbio, Cat No. 62TNFPEB), as per manufacturer instructions. Cells were cultured in 96 well assay plates at 100,000 cells per well, and compounds diluted in final 0.3% DMSO were pre-incubated with cells for 1 hour prior to stimulation with 300 ng/mL LPS. Cytokine production in cell supernatant was measured at 5 hours for TNFα and IL8 production, and for 16 hours for IL8 production and assessment of cell viability.

IRAK4 = biological target: T1, IRAK4 (Homo sapiens, UniProt Q9NWZ3); test: IRAK-4 activity inhibition assay (Caliper); format: biochemical; settings: 3.5 nM IRAK4, 37 μM ATP, 1.5 μM Peptide 8
T1 construct: purchased CARNA Bioscience 09-145
T1 sequence (Q9NWZ3 1-460): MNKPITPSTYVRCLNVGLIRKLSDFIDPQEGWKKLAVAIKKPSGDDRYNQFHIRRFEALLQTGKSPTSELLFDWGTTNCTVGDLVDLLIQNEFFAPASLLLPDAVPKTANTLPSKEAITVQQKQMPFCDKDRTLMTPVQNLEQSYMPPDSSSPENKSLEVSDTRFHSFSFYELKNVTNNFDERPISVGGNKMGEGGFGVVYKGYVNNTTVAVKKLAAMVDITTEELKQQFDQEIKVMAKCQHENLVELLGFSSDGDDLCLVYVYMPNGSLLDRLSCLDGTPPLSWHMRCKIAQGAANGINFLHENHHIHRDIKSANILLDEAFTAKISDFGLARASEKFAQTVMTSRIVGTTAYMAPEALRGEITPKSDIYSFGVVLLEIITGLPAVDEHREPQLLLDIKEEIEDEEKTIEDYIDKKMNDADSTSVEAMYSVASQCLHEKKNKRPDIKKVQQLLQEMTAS
Method: A 1× kinase base buffer was prepared from 50 mM HEPES, pH 7.5 and 0.0015% Brij-35. A stop buffer was prepared from 100 mM HEPES, pH 7.5, 0.015% Brij-35, 0.2% Coating Reagent #3, and 50 mM EDTA.
Test compound was diluted to 50× of the final desired highest inhibitor concentration in reaction by 100% DMSO. 100 ul of this compound dilution was transferred to a well in a 96-well plate.
Test compound was serially diluted by transferring 30 μl to 60 μl of 100% DMSO in the next well and so forth for a total of 10 concentrations. 100 μl of 100% DMSO was added to two empty wells for no compound control and no enzyme control in the same 96-well plate.
A new 96-well plate was marked as intermediate plate. 5 μl of compound serial dilution was transferred from source plate to the corresponding wells of the intermediate plate. 45 μl of 1× kinase base buffer (KB buffer) was added to each well of the intermediate plate. The intermediate plate was placed for 10 min on a shaker.
5 μl of each well was transferred from the 96-well intermediate plate to a 384-well plate in duplicates. For example, A1 of the 96-well plate is transferred to A1 and A2 of the 384-well plate. A2 of the 96-well plate is transferred to A3 and A4 of the 384-well plate, and so on.
IRAK4 and DTT in 1× kinase base buffer was added. The 2.5× enzyme mix contained 8.8 nM IRAK4 and 5 mM DTT.
Peptide 8, ATP, MgCl2 and MnCl2 were added in the 1× kinase base buffer. The 2.5× peptide mix contained 3.75 μM peptide 8, 92.5 μM ATP, 12.5 mM MgCl2 and 2.5 mM MnCl2.
Assay plate already contained 5 μl of compound in 10% DMSO. Added 10 μl of 2.5× enzyme solution to each well of the 384-well assay plate, except no enzyme control wells. The final concentration of IRAK4 in reaction was 3.5 nM. Added 10 μl of 1× kinase base buffer to no enzyme control wells in the assay plate. Incubated at room temperature for 10 min.
Added 10 μl of 2.5× peptide solution to each well of the 384-well assay plate. The final concentration of Peptide 8 and ATP was 1.5 μM and 37 μM, respectively. Incubated at 28° C. for 40 minutes. Added 25 μl of stop buffer to stop reaction. Collected data on Caliper.
Copied conversion % data from Caliper program. Converted conversion % values to percent inhibition values. Percent inhibition=(max-conversion %)/(max-min)*100, where “max” means the conversion % of DMSO control and “min” means the conversion % of no enzyme control.

[2] = tested on: IL8 production in THP-1 cells; test: LPS induced IL8 production assay in THP-1 cells; format: cell-based; settings: Homo sapiens, 300 ng/mL LPS
Method: as §1, §2

Question: With `Cn1cc(Nc2nc(O[C@H]3CC[C@H](N(C)C)CC3)c3c4c(sc3n2)CCC4)cn1` [Compound I-14, 12-[[4-(dimethylamino)cyclohexyl]oxy]-N-(1-methyl-1H-pyrazol-4-yl)-7-thia-9,11-diazatricyclo[6.4.0.0[2,6]]dodeca-1(8),2(6),9,11-tetraen-10-amine] as the compound, how does the IC50 [1] read?
Answer: ≤ 0.5 µM

Question: And the IC50 (IRAK4)?
Answer: ≤ 5 µM

Question: And the IC50 [2]?
Answer: ≤ 0.5 µM

Question: With `CN1CCN(c2ccc(Nc3nc(O[C@H]4CC[C@H](N(C)C)CC4)c4c5c(sc4n3)CCC5CC(N)=O)cc2)CC1` (some centres unmarked) [Compound I-19, 2-(4-(((1r,4r)-4-(dimethylamino)cyclohexyl)oxy)-2-((4-(4-methylpiperazin-1-yl)phenyl)amino)-6,7-dihydro-5H-cyclopenta[4,5]thieno[2,3-d]pyrimidin-5-yl)acetamide] as the compound, how does the IC50 (IRAK4) read?
Answer: ≤ 5 µM

Question: And the IC50 [2]?
Answer: ≥ 5 µM

Question: How did the IC50 [1] turn out when `CN1CCN(c2ccc(Nc3nc(O[C@H]4CC[C@H](N(C)C)CC4)c4c5c(sc4n3)CC[C@@H]5CC(N)=O)cc2)CC1` [Compound I-23] was run?
Answer: 1 to 5 µM

Question: What about the IC50 (IRAK4) of the same compound?
Answer: ≤ 5 µM

Question: What about the IC50 [2] of the same compound?
Answer: ≥ 5 µM

Question: What does the source list for `CN(C)[C@H]1CC[C@H](Oc2nc(Nc3ccccc3)nc3sc4c(c23)[C@@H](CC(N)=O)CC4)CC1` [Compound I-24, 2-[(3R)-10-(phenylamino)-12-[[(1r,4r)-4-(dimethylamino)cyclohexyl]oxy]-7-thia-9,11-diazatricyclo[6.4.0.0[2,6]]dodeca-1(8),2(6),9,11-tetraen-3-yl]acetamide]?
Answer: IC50 [1]: ≤ 0.5 µM; IC50 (IRAK4): ≤ 5 µM; IC50 [2]: ≤ 0.5 µM

Question: Which IC50 (IRAK4) does the source give for `CN1CCN(c2ccc(Nc3nc(N[C@H]4CC[C@H](N(C)C)CC4)c4c5c(sc4n3)CCC5)cc2)CC1` [Compound I-69, 12-N-[4-(dimethylamino)cyclohexyl]-10-N-[4-(4-methylpiperazin-1-yl)phenyl]-7-thia-9,11-diazatricyclo[6.4.0.0[2,6]]dodeca-1(8),2(6),9,11-tetraene-10,12-diamine] here?
Answer: ≤ 5 µM

Question: How did the IC50 (IRAK4) turn out when `c1cc(C2CCNCC2)ccc1Nc1nc(N[C@H]2CC[C@H](N3CCOCC3)CC2)c2c3c(sc2n1)CCC3` [Compound I-70, 12-N-[4-(morpholin-4-yl)cyclohexyl]-10-N-[4-(piperidin-4-yl)phenyl]-7-thia-9,11-diazatricyclo[6.4.0.0[2,6]]dodeca-1(8),2(6),9,11-tetraene-10,12-diamine hydrochloride] was run?
Answer: ≤ 5 µM

Question: With `CN(C)[C@H]1CC[C@H](Nc2nc(Nc3ccc(C4CCNCC4)cc3)nc3sc4c(c23)CCC4)CC1` [Compound I-71, 12-N-[4-(dimethylamino)cyclohexyl]-10-N-[4-(piperidin-4-yl)phenyl]-7-thia-9,11-diazatricyclo[6.4.0.0[2,6]]dodeca-1(8),2(6),9,11-tetraene-10,12-diamine hydrochloride] as the compound, how does the IC50 (IRAK4) read?
Answer: ≤ 5 µM

Question: How did the IC50 [1] turn out when `Cn1cc(Nc2nc(N[C@H]3CC[C@H](N(C)C)CC3)c3c4c(sc3n2)CCC4)cn1` [Compound I-72, 12-N-[4-(dimethylamino)cyclohexyl]-10-N-(1-methyl-1H-pyrazol-4-yl)-7-thia-9,11-diazatricyclo[6.4.0.0[2,6]]dodeca-1(8),2(6),9,11-tetraene-10,12-diamine] was run?
Answer: ≤ 0.5 µM

Question: What about the IC50 (IRAK4) of the same compound?
Answer: ≤ 5 µM

Question: What about the IC50 [2] of the same compound?
Answer: ≤ 0.5 µM

Question: With `Cn1cc(Nc2nc(O[C@H]3CC[C@H](N4CCOCC4)CC3)c3c4c(sc3n2)CCC4)cn1` [Compound I-73, N-(1-methyl-1H-pyrazol-4-yl)-12-[[4-(morpholin-4-yl)cyclohexyl]oxy]-7-thia-9,11-diazatricyclo[6.4.0.0[2,6]]dodeca-1(8),2(6),9,11-tetraen-10-amine] as the compound, how does the IC50 [1] read?
Answer: 0.5 to 1 µM

Question: What about the IC50 (IRAK4) of the same compound?
Answer: ≤ 5 µM

Question: What about the IC50 [2] of the same compound?
Answer: ≤ 0.5 µM

Question: Which IC50 [1] does the source give for `Cn1cc(Nc2nc(N[C@H]3CC[C@H](N4CCOCC4)CC3)c3c4c(sc3n2)CCC4)cn1` [Compound I-74, 10-N-(1-methyl-1H-pyrazol-4-yl)-12-N-[4-(morpholin-4-yl)cyclohexyl]-7-thia-9,11-diazatricyclo[6.4.0.0[2,6]]dodeca-1(8),2(6),9,11-tetraene-10,12-diamine] here?
Answer: ≤ 0.5 µM

Question: And the IC50 (IRAK4)?
Answer: ≤ 5 µM

Question: And the IC50 [2]?
Answer: ≤ 0.5 µM
